What all share (assay): growth of human tumour cells (NCI), 48 h
In experiment [1] the test system is CCRF-CEM.
Experiment [2] concerns HCT-15.
Experiment [3] deals with NCI-H23.
Experiment [4] concerns TK-10.
The subject of experiment [5] is M14.
Experiment [6] concerns OVCAR-4.
For experiment [7], the system named is MOLT-4.
In experiment [8] the test system is SNB-19.
In experiment [9] the test system is NCI-H522.
For experiment [10], the system named is OVCAR-5.
The subject of experiment [11] is UACC-257.
In experiment [12] the test system is SK-OV-3.
Experiment [13] deals with ACHN.
For experiment [14], the system named is IGROV-1.
For experiment [15], the system named is SK-MEL-28.
Experiment [16] has as its system NCI-H226.

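All cell lines were grown in 96-well plates and treated with compound for 48 hours. Here, GI50 denotes the concentration required for 50% inhibition of growth.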 The source made the active and inactive calls. No stated cut-off is given here; in the data, active = GI50 up to about 1.1 µM and inactive = higher.

Take `O=[N+]([O-])c1cccc(/C=N\NS(=O)(=O)c2ccc(Cl)cc2)c1O`: the GI50 in [1] is 31.7 µM (inactive); in experiment [2], 52.5 µM; in [3] it was 44.3 µM (inactive); in experiment [4] it was > 100 µM (inactive); in experiment [5], 90.8 µM (inactive); in experiment [6] it was > 100 µM (inactive). Further, the GI50 in [7] is 47.5 µM (inactive); in experiment [8], > 100 µM (inactive); in experiment [9], 31.8 µM (inactive); in experiment [10], > 100 µM (inactive); in [11], > 100 µM (inactive); in [12], > 100 µM (inactive). The GI50 is 98.6 µM (inactive) in experiment [13], 49.4 µM (inactive) in experiment [14] and 46.9 µM (inactive) in [15].
Take `O=C(CN1CCN(c2cccc(Cl)c2)CC1)N1CCc2c([nH]c3ccccc23)C1c1cccnc1` (stereo unspecified): the GI50 in experiment [1] is 3.15 µM (inactive); in [2], 5.25 µM; in [3] it was 16.4 µM (inactive); in experiment [4], 26.2 µM (inactive); in experiment [5], 4.47 µM (inactive); in experiment [6], 13.5 µM (inactive). In addition, the GI50 in [7] is 2.54 µM (inactive); in experiment [8], 26.1 µM (inactive); in experiment [9], 12.2 µM (inactive); in [10], 3.96 µM (inactive); in experiment [11] it was 5.41 µM (inactive); in experiment [12] it was > 100 µM (inactive). The GI50 was 8.87 µM (inactive) in [13], 22.4 µM (inactive) in [14] and 12.2 µM (inactive) in [15].
Turning to `COC(=O)N/N=C/c1oc(-c2cccc([N+](=O)[O-])c2)c(-c2cccc([N+](=O)[O-])c2)c1[N+](=O)[O-]`, the GI50 is 22.1 µM (inactive) in experiment [1]; more than 100 µM in experiment [2]; > 100 µM (inactive) in [3]; > 100 µM (inactive) in experiment [4]; > 100 µM (inactive) in experiment [5]; > 100 µM (inactive) in experiment [6]. Also, the GI50 in [7] was 24.2 µM (inactive); in [8], > 100 µM (inactive); in [9], 60.8 µM (inactive); in [10], > 100 µM (inactive); in experiment [11] it was > 100 µM (inactive); in experiment [12], > 100 µM (inactive). Moreover, the GI50 in experiment [13], in [14] and in experiment [15] was > 100 µM (inactive) in each case.
Turning to `C[P+](C)(C)c1ccccc1`, the GI50 is > 100 µM (inactive) in experiment [1]; more than 100 µM in [2]; > 100 µM (inactive) in experiment [3]; > 100 µM (inactive) in experiment [4]; > 100 µM (inactive) in experiment [5]; > 100 µM (inactive) in experiment [6]. Besides, the GI50 in experiment [7], in experiment [8], in experiment [10], in experiment [11], in experiment [12] and in [13] was > 100 µM (inactive) throughout. In addition, the GI50 in [16], in experiment [14] and in [15] was > 100 µM (inactive) in each case.
Regarding `O=C(Nc1cc(Cl)ccc1Cl)c1cc2cccc(Br)c2oc1=O`, the GI50 was > 100 µM (inactive) in experiment [1]; more than 100 µM in experiment [2]; > 100 µM (inactive) in experiment [3]; > 100 µM (inactive) in experiment [4]; > 100 µM (inactive) in experiment [5]; > 100 µM (inactive) in experiment [7]. Besides, the GI50 in [8], in experiment [9], in experiment [11], in [12], in experiment [13] and in [16] was > 100 µM (inactive) in each case. Besides, the GI50 in [14] and in experiment [15] was > 100 µM (inactive) throughout.
With `CC(=O)Nc1ccc(/C=C/C(=O)c2sc(-c3cccnc3)nc2C)cc1`, the GI50 in [1] is > 100 µM (inactive); in experiment [2] it was more than 100 µM; in experiment [3], > 100 µM (inactive); in experiment [4], > 100 µM (inactive); in [7], > 100 µM (inactive); in experiment [9], > 100 µM (inactive). Besides, the GI50 in experiment [10], in experiment [11], in experiment [12], in [13], in experiment [16] and in experiment [14] was > 100 µM (inactive) in each case. Besides, the GI50 in [15] was > 100 µM (inactive).
For the compound `CCCCCCCCCOC(=S)NC`, the GI50 in [1] was 19.7 µM (inactive); in experiment [2] it was 18.7 µM; in experiment [3], 16.7 µM (inactive); in experiment [4], 21.3 µM (inactive); in experiment [5], 21.1 µM (inactive); in experiment [6] it was 19.6 µM (inactive). Also, the GI50 in experiment [7] is 17.1 µM (inactive); in experiment [8], 30.8 µM (inactive); in [9] it was 14.7 µM (inactive); in experiment [10], 18.3 µM (inactive); in experiment [12], 24.5 µM (inactive); in [13] it was 19.3 µM (inactive). In addition, the GI50 in [14] was 24.2 µM (inactive); in experiment [15], 22.3 µM (inactive).
Turning to `C/C(CC(=O)Nc1cccc([N+](=O)[O-])c1)=N\NC(=O)C[n+]1ccccc1`, the GI50 in [1], in experiment [3], in experiment [4], in experiment [5], in [7] and in experiment [9] was > 100 µM (inactive) throughout. Moreover, the GI50 in experiment [10], in experiment [11], in [12], in experiment [16], in [14] and in [15] was > 100 µM (inactive) each time.
`N=C(N)NCCCC(Nc1c2ccccc2[n+]([O-])c2ccccc12)C(=O)O` (stereo unspecified): the GI50 in experiment [1] is 33.4 µM (inactive); in experiment [2], 36.8 µM; in experiment [3], 34.6 µM (inactive); in experiment [4] it was > 100 µM (inactive); in [5], 73.6 µM (inactive); in experiment [6], 65.5 µM (inactive). In addition, the GI50 in experiment [7] was 37.8 µM (inactive); in [8], 64 µM (inactive); in experiment [9] it was 29 µM (inactive); in experiment [10], 56.5 µM (inactive); in experiment [12] it was > 100 µM (inactive); in [13], 23.1 µM (inactive). The GI50 in experiment [16] is 70.6 µM (inactive); in [14], > 100 µM (inactive); in experiment [15], 27.2 µM (inactive).
For the compound `CCN(CC)CC(=O)NC1c2ccccc2Oc2ccccc21`, the GI50 in [1] was > 100 µM (inactive); in experiment [2], more than 100 µM; in experiment [3], > 100 µM (inactive); in [4] it was > 100 µM (inactive); in [5] it was > 100 µM (inactive); in [6], > 100 µM (inactive). The GI50 in experiment [7], in [8], in experiment [10], in [11], in experiment [12] and in experiment [16] was > 100 µM (inactive) throughout. Also, the GI50 in experiment [14] and in experiment [15] was > 100 µM (inactive) each time.
Turning to `CCCCNC(=S)OCCC(C)CCCC(C)C` (stereo unspecified), the GI50 is > 100 µM (inactive) in [1]; more than 100 µM in experiment [2]; > 100 µM (inactive) in experiment [3]; > 100 µM (inactive) in [4]; > 100 µM (inactive) in experiment [5]; > 100 µM (inactive) in experiment [6]. Also, the GI50 in [7], in experiment [8], in [10], in [11], in experiment [12] and in experiment [13] was > 100 µM (inactive) in each case. Besides, the GI50 in experiment [14] is > 100 µM (inactive); in experiment [15], 87.9 µM (inactive).
In the case of `COc1ccc(-n2/c(=N/C(=S)N(C)C)ss/c2=N\C(=S)N(C)C)cc1`, the GI50 was more than 100 µM in experiment [2]; 39.4 µM (inactive) in experiment [3]; > 100 µM (inactive) in experiment [4]; 36.9 µM (inactive) in experiment [5]; 4.7 µM (inactive) in [6]; 79.4 µM (inactive) in [7]. Besides, the GI50 in experiment [8] was 11.6 µM (inactive); in [9], 2.54 µM (inactive); in experiment [10], > 100 µM (inactive); in experiment [11], > 100 µM (inactive); in experiment [12], 27.8 µM (inactive); in [13], > 100 µM (inactive). For the same compound, the values for the GI50 in experiment [16], in [14] and in experiment [15] were > 100 µM (inactive), 14.2 µM (inactive) and 9.35 µM (inactive), respectively.
As for `N#CCCN(c1ccc(/C=C2\N=C(Cc3ccccc3)OC2=O)cc1)S(=O)(=O)c1ccccc1`, the GI50 in experiment [1] was > 100 µM (inactive); in experiment [2], more than 100 µM; in experiment [3], > 100 µM (inactive); in [4] it was > 100 µM (inactive); in experiment [5] it was > 100 µM (inactive); in [7], > 100 µM (inactive). The GI50 in experiment [8], in experiment [9], in experiment [10], in [11], in [12] and in [13] was > 100 µM (inactive) in each case. Also, the GI50 in experiment [16], in experiment [14] and in experiment [15] was > 100 µM (inactive) each time.
As to `CN(C)CCC(/C=C/c1ccccc1)=N\Nc1c(F)c(F)c(F)c(F)c1F`, the GI50 was 55.6 µM (inactive) in [1]; 56.8 µM in [2]; > 100 µM (inactive) in experiment [3]; > 100 µM (inactive) in experiment [4]; 44.1 µM (inactive) in [5]; > 100 µM (inactive) in experiment [6]. In addition, the GI50 is 45.1 µM (inactive) in experiment [7]; > 100 µM (inactive) in experiment [8]; 64.1 µM (inactive) in [9]; > 100 µM (inactive) in experiment [10]; 26.4 µM (inactive) in experiment [11]; > 100 µM (inactive) in [12]. In addition, the figures for the GI50 in experiment [13], in [14] and in experiment [15] were 49.1 µM (inactive), > 100 µM (inactive) and > 100 µM (inactive), respectively.
